Experimental data published in PubChem BioAssay AID2060599 (Molecular Pharmacology Branch, DTP, NCI, 2025).

System: 817829-284-R-J1-PDC complex spheroids, viability
Test: Anticancer human tumor 817829-284-R-J1-PDC patient-derived colon adenocarcinoma cell line growth inhibition [CLK]
Details: for IC50: curve of first compound; for viability, T/C: stronger effect = lower value
How it was run: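 Patient-derived tumor cells grown as complex spheroids with HUVEC endothelial cells and mesenchymal stem cells, treated with drug combinations. Concentrations descend in half-log steps from near clinical Cmax, or from 10 microM if Cmax unknown.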

[1] = second compound 0.0316 µM, first compound 0.0316 µM
[2] = second compound 0.0316 µM, first compound 0.1 µM
[3] = second compound 0.1 µM, first compound 0.0316 µM
[4] = second compound 0.1 µM, first compound 0.1 µM
[5] = second compound 0.316 µM, first compound 0.0316 µM
[6] = second compound 0.316 µM, first compound 0.1 µM
[7] = second compound 1 µM, first compound 0.0316 µM
[8] = second compound 1 µM, first compound 0.1 µM
[9] = second compound 3.16 µM, first compound 0.0316 µM
[10] = second compound 3.16 µM, first compound 0.1 µM
[11] = second compound 10 µM, first compound 0.0316 µM
[12] = second compound 10 µM, first compound 0.1 µM
[13] = second compound 0.0316 µM, first compound 0.316 µM
[14] = second compound 0.0316 µM, first compound 1 µM
[15] = second compound 0.0316 µM, first compound 3.16 µM
[16] = second compound 0.0316 µM, first compound 10 µM
[17] = second compound 0.1 µM, first compound 0.316 µM
[18] = second compound 0.1 µM, first compound 1 µM
[19] = second compound 0.1 µM, first compound 3.16 µM
[20] = second compound 0.1 µM, first compound 10 µM
[21] = second compound 0.316 µM, first compound 0.316 µM
[22] = second compound 0.316 µM, first compound 1 µM
[23] = second compound 0.316 µM, first compound 3.16 µM
[24] = second compound 0.316 µM, first compound 10 µM
[25] = second compound 1 µM, first compound 0.316 µM
[26] = second compound 1 µM, first compound 1 µM
[27] = second compound 1 µM, first compound 3.16 µM
[28] = second compound 1 µM, first compound 10 µM
[29] = second compound 3.16 µM, first compound 0.316 µM
[30] = second compound 3.16 µM, first compound 1 µM
[31] = second compound 3.16 µM, first compound 3.16 µM
[32] = second compound 3.16 µM, first compound 10 µM
[33] = second compound 10 µM, first compound 0.316 µM
[34] = second compound 10 µM, first compound 1 µM
[35] = second compound 10 µM, first compound 3.16 µM
[36] = second compound 10 µM, first compound 10 µM
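Note: spheroids exposed to the agents for seven days before readout.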

CC(C)CC(NC(=O)C(Cc1ccccc1)NC(=O)c1cnccn1)B(O)O (stereo not drawn) + CN1CCN(c2cc(C(=O)Nc3cc4cc(-c5cnn(C)c5)ccc4cn3)ccn2)CC1
IC50 (second compound 0.0316 µM): 1.09 nM
IC50 (second compound 0.1 µM): < 0.949 nM
IC50 (second compound 0.316 µM): < 0.949 nM
IC50 (second compound 1 µM): < 0.949 nM
IC50 (second compound 3.16 µM): < 0.949 nM
IC50 (second compound 10 µM): < 0.949 nM
viability, T/C (second compound 0.0316 µM, first compound 0.000949 µM): 56.9%
viability, T/C (second compound 0.0316 µM, first compound 0.003 µM): 0.32%
viability, T/C (second compound 0.0316 µM, first compound 0.00949 µM): 0.15%
viability, T/C (second compound 0.0316 µM, first compound 0.03 µM): 0.1%
viability, T/C (second compound 0.0316 µM, first compound 0.0949 µM): 0.08%
viability, T/C (second compound 0.0316 µM, first compound 0.3 µM): 0.06%
viability, T/C (second compound 0.1 µM, first compound 0.000949 µM): 8.37%
viability, T/C (second compound 0.1 µM, first compound 0.003 µM): 0.1%
viability, T/C (second compound 0.1 µM, first compound 0.00949 µM): 0.11%
viability, T/C (second compound 0.1 µM, first compound 0.03 µM): 0.08%
viability, T/C (second compound 0.1 µM, first compound 0.0949 µM): 0.06%
viability, T/C (second compound 0.1 µM, first compound 0.3 µM): 0.06%
viability, T/C (second compound 0.316 µM, first compound 0.000949 µM): 0.43%
viability, T/C (second compound 0.316 µM, first compound 0.003 µM): 0.07%
viability, T/C (second compound 0.316 µM, first compound 0.00949 µM): 0.09%
viability, T/C (second compound 0.316 µM, first compound 0.03 µM): 0.04%
viability, T/C (second compound 0.316 µM, first compound 0.0949 µM): 0.05%
viability, T/C (second compound 0.316 µM, first compound 0.3 µM): 0.05%
viability, T/C (second compound 1 µM, first compound 0.000949 µM): 0.08%
viability, T/C (second compound 1 µM, first compound 0.003 µM): 0.06%
viability, T/C (second compound 1 µM, first compound 0.00949 µM): 0.05%
viability, T/C (second compound 1 µM, first compound 0.03 µM): 0.04%
viability, T/C (second compound 1 µM, first compound 0.0949 µM): 0.05%
viability, T/C (second compound 1 µM, first compound 0.3 µM): 0.05%
viability, T/C (second compound 3.16 µM, first compound 0.000949 µM): 0.07%
viability, T/C (second compound 3.16 µM, first compound 0.003 µM): 0.06%
viability, T/C (second compound 3.16 µM, first compound 0.00949 µM): 0.06%
viability, T/C (second compound 3.16 µM, first compound 0.03 µM): 0.04%
viability, T/C (second compound 3.16 µM, first compound 0.0949 µM): 0.07%
viability, T/C (second compound 3.16 µM, first compound 0.3 µM): 0.07%
viability, T/C (second compound 10 µM, first compound 0.000949 µM): 0.03%
viability, T/C (second compound 10 µM, first compound 0.003 µM): 0.06%
viability, T/C (second compound 10 µM, first compound 0.00949 µM): 0.09%
viability, T/C (second compound 10 µM, first compound 0.03 µM): 0.09%
viability, T/C (second compound 10 µM, first compound 0.0949 µM): 0.15%
viability, T/C (second compound 10 µM, first compound 0.3 µM): 0.11%

Cn1ncnc1[C@H]1c2n[nH]c(=O)c3cc(F)cc(c23)N[C@@H]1c1ccc(F)cc1 + CN1CCN(c2cc(C(=O)Nc3cc4cc(-c5cnn(C)c5)ccc4cn3)ccn2)CC1
IC50 (second compound 0.0316 µM): 2.58 nM
IC50 (second compound 0.1 µM): < 0.316 nM
IC50 (second compound 0.316 µM): < 0.316 nM
IC50 (second compound 1 µM): < 0.316 nM
IC50 (second compound 3.16 µM): < 0.316 nM
IC50 (second compound 10 µM): < 0.316 nM
viability, T/C (second compound 0.0316 µM, first compound 0.000316 µM): 60.1%
viability, T/C (second compound 0.0316 µM, first compound 0.001 µM): 54.6%
viability, T/C (second compound 0.0316 µM, first compound 0.00316 µM): 47.3%
viability, T/C (second compound 0.0316 µM, first compound 0.01 µM): 43.5%
viability, T/C [1]: 32.6%
viability, T/C [2]: 24.1%
viability, T/C (second compound 0.1 µM, first compound 0.000316 µM): 13.6%
viability, T/C (second compound 0.1 µM, first compound 0.001 µM): 14%
viability, T/C (second compound 0.1 µM, first compound 0.00316 µM): 15.3%
viability, T/C (second compound 0.1 µM, first compound 0.01 µM): 14%
viability, T/C [3]: 15.8%
viability, T/C [4]: 14.7%
viability, T/C (second compound 0.316 µM, first compound 0.000316 µM): 1.91%
viability, T/C (second compound 0.316 µM, first compound 0.001 µM): 2.09%
viability, T/C (second compound 0.316 µM, first compound 0.00316 µM): 2.16%
viability, T/C (second compound 0.316 µM, first compound 0.01 µM): 1.96%
viability, T/C [5]: 1.91%
viability, T/C [6]: 1.89%
viability, T/C (second compound 1 µM, first compound 0.000316 µM): 0.11%
viability, T/C (second compound 1 µM, first compound 0.001 µM): 0.08%
viability, T/C (second compound 1 µM, first compound 0.00316 µM): 0.09%
viability, T/C (second compound 1 µM, first compound 0.01 µM): 0.09%
viability, T/C [7]: 0.08%
viability, T/C [8]: 0.09%
viability, T/C (second compound 3.16 µM, first compound 0.000316 µM): 0.1%
viability, T/C (second compound 3.16 µM, first compound 0.001 µM): 0.11%
viability, T/C (second compound 3.16 µM, first compound 0.00316 µM): 0.14%
viability, T/C (second compound 3.16 µM, first compound 0.01 µM): 0.1%
viability, T/C [9]: 0.15%
viability, T/C [10]: 0.11%
viability, T/C (second compound 10 µM, first compound 0.000316 µM): 0.04%
viability, T/C (second compound 10 µM, first compound 0.001 µM): 0.05%
viability, T/C (second compound 10 µM, first compound 0.00316 µM): 0.08%
viability, T/C (second compound 10 µM, first compound 0.01 µM): 0.06%
viability, T/C [11]: 0.07%
viability, T/C [12]: 0.09%

Nc1ccn(C2OC(CO)C(O)C2(F)F)c(=O)n1 (stereo not drawn) + CN1CCN(c2cc(C(=O)Nc3cc4cc(-c5cnn(C)c5)ccc4cn3)ccn2)CC1
IC50 (second compound 0.0316 µM): < 31.6 nM
IC50 (second compound 0.1 µM): < 31.6 nM
IC50 (second compound 0.316 µM): < 31.6 nM
IC50 (second compound 1 µM): < 31.6 nM
IC50 (second compound 3.16 µM): < 31.6 nM
IC50 (second compound 10 µM): < 31.6 nM
viability, T/C [1]: 4.65%
viability, T/C [2]: 4.62%
viability, T/C [13]: 3.63%
viability, T/C [14]: 3.9%
viability, T/C [15]: 3.03%
viability, T/C [16]: 1.88%
viability, T/C [3]: 3.65%
viability, T/C [4]: 3.83%
viability, T/C [17]: 3.7%
viability, T/C [18]: 3.47%
viability, T/C [19]: 3.1%
viability, T/C [20]: 1.72%
viability, T/C [5]: 1.66%
viability, T/C [6]: 1.94%
viability, T/C [21]: 1.74%
viability, T/C [22]: 1.53%
viability, T/C [23]: 1.54%
viability, T/C [24]: 0.9%
viability, T/C [7]: 0.14%
viability, T/C [8]: 0.08%
viability, T/C [25]: 0.09%
viability, T/C [26]: 0.07%
viability, T/C [27]: 0.14%
viability, T/C [28]: 0.07%
viability, T/C [9]: 0.11%
viability, T/C [10]: 0.14%
viability, T/C [29]: 0.17%
viability, T/C [30]: 0.09%
viability, T/C [31]: 0.11%
viability, T/C [32]: 0.09%
viability, T/C [11]: 0.05%
viability, T/C [12]: 0.09%
viability, T/C [33]: 0.09%
viability, T/C [34]: 0.09%
viability, T/C [35]: 0.11%
viability, T/C [36]: 0.11%

O=C(c1cc(Cc2n[nH]c(=O)c3ccccc23)ccc1F)N1CCN(C(=O)C2CC2)CC1 + CN1CCN(c2cc(C(=O)Nc3cc4cc(-c5cnn(C)c5)ccc4cn3)ccn2)CC1
IC50 (second compound 0.0316 µM): < 31.6 nM
IC50 (second compound 0.1 µM): < 31.6 nM
IC50 (second compound 0.316 µM): < 31.6 nM
IC50 (second compound 1 µM): < 31.6 nM
IC50 (second compound 3.16 µM): < 31.6 nM
IC50 (second compound 10 µM): < 31.6 nM
viability, T/C [1]: 49.4%
viability, T/C [2]: 44.3%
viability, T/C [13]: 46.2%
viability, T/C [14]: 45.6%
viability, T/C [15]: 36.7%
viability, T/C [16]: 26.6%
viability, T/C [3]: 15.5%
viability, T/C [4]: 19.8%
viability, T/C [17]: 18.6%
viability, T/C [18]: 20.7%
viability, T/C [19]: 17.8%
viability, T/C [20]: 18.6%
viability, T/C [5]: 1.83%
viability, T/C [6]: 1.77%
viability, T/C [21]: 2.03%
viability, T/C [22]: 1.63%
viability, T/C [23]: 1.4%
viability, T/C [24]: 1.54%
viability, T/C [7]: 0.12%
viability, T/C [8]: 0.1%
viability, T/C [25]: 0.12%
viability, T/C [26]: 0.09%
viability, T/C [27]: 0.12%
viability, T/C [28]: 0.09%
viability, T/C [9]: 0.2%
viability, T/C [10]: 0.18%
viability, T/C [29]: 0.17%
viability, T/C [30]: 0.16%
viability, T/C [31]: 0.23%
viability, T/C [32]: 0.22%
viability, T/C [11]: 0.06%
viability, T/C [12]: 0.08%
viability, T/C [33]: 0.15%
viability, T/C [34]: 0.09%
viability, T/C [35]: 0.18%
viability, T/C [36]: 0.15%
